# Source: US20240115566A1, “METHODS OF TREATING DISORDERS ASSOCIATED WITH CASTOR” (ST. JUDE CHILDREN'S RESEARCH HOSPITAL, INC., priority 2020, published 2024)
# Where two headings read alike, the source gives them in different places.
# Key:
# in vivo = conditions: male, BALB/c, mouse, plasma; for bioavailability: oral
# [1] = Pharmacokinetic evaluation in plasma of male BALB/c mice
# [2] = test system: neuronal SynCre+ Pank1,2 dKO mice; assay: Survival, weight gain and physiology of neuronal SynCre+ Pank1,2 dKO mice on Compound 1 chow; type: in vivo, mouse; conditions: 75 ppm chow
# Text: All procedures were reviewed and approved by the St. Jude Children's Research Hospital Institutional Animal Care and Use Committee. […] The mice were maintained at room temperature, humidity 50±10% and a 14/10-hour light/dark cycle. […] Water was supplied ad libitum. Mice were randomized into the treatment arms at weaning.
# Neuron-specific deletion of Pank1 and Pank2 was confirmed by PCR genotyping of brain and liver postmortem as described by Sharma et al.
# C3A cells = assay: Total cellular CoA in C3A cells; type: cell-based, human; conditions: 10 μM, 24 h
# Procedure: Cell culture. Human C3A (HepG2/C3A) cells (#CRL-1074) were purchased from ATCC® and maintained in DMEM supplemented with 2 mM glutamine, 10% fetal bovine serum (Atlanta Biologicals), 50 U/ml penicillin and […] streptomycin. HEK293T cells (ATCC, #CRL-3216) were used for expression of human PCCA protein standard and were maintained in DMEM plus supplements as described above. Each cell line was confirmed to be mycoplasma-free. […] DMSO alone was added to control cultures. Culture medium was aspirated off the dish, cells were quickly washed with ice-cold phosphate-buffered saline that was quickly aspirated off the dish, and cells were quickly washed again with ice-cold water that was aspirated off to remove residual saline. Ice-cold water (1 ml) was added to the culture dish, cells were scraped into the cold water and the cell suspension was transferred to a glass test tube containing 400 μl of […] KOH and 1.5 ml water for analysis of total CoA content.
# [3] = test system: Pcca−/−PCCA(A138T)tg/0 (PA) mice; assay: TCA cycle intermediates in urine of PZ-3022-treated PA mice; type: in vivo, mouse; conditions: PZ-3022 therapy
# Procedure: FIGS. 6A-6B show TCA cycle intermediates in plasma and urine of treated PA mice. Urinary TCA cycle metabolites eliminated over 24 h were quantified by mass spectrometry and normalized to mouse body weight. […] Three male (blue) and three female (red) mice were used for each determination.
# (§1) Animal experiments. […] Water was supplied ad libitum.
# Metabolites in urine and plasma. Water was added to a 24-h urine sample to a final volume of 1 ml for each mouse. To 100 μl of urine or 20 μl of plasma, warfarin standard was added at a final concentration of 0.2 μM and the sample was incubated at −80° C. for 1 hour. The sample was centrifuged at 6000×g for 10 minutes to remove precipitants and the supernatant was analyzed by LC/MS/MS. […] Solvent A was 0.1% formic acid in water, and Solvent B was acetonitrile+0.1% formic acid. […] The MRMs for metabolites in either the positive or negative mode were taken from. The MRMs for the warfarin internal standard were: negative mode, 307.1/161.0; and positive mode, 309.1/163.0. […] The relative amount of metabolite was normalized to the amount of warfarin. To improve glycine detection, this metabolite was measured after derivatization with benzoyl chloride using the technology and MRMs described.
# wild-type mice = assay: Effect of PZ-3022 chow on liver CoA, amino acids and TCA metabolites in wild-type mice; type: in vivo, mouse
# Procedure: FIGS. 20A-20E show liver CoASH (20A), liver C2-CoA (20B), liver C3-CoA (20C), liver C3:C2-CoA ratio (20D), and plasma and urine amino acid levels (20E). Number of mice in each group are shown in parenthesis. Amino acids were measured by mass spectrometry using warfarin as an internal standard except for glycine, which was measured as its benzoyl derivative. […] Two male (blue) and three female (red) mice were used for each determination.
# Urinary TCA cycle metabolites eliminated over 24 h were quantified by mass spectrometry and normalized to mouse body weight. […] Male (blue) and female (red) mice were used for each determination. Number of mice in each group are shown in parenthesis.
# as §1
# [4] = test system: Pcca−/−PCCA(A138T)tg/0 (PA) mice
# C57BL/6J mice = assay: Liver total CoA and drug exposure in C57BL/6J mice (gavage or chow)
# [5] = test system: Pcca−/−PCCA(A138T)tg/0 (PA) mice; assay: Short-term (3-day gavage) PZ-3022 treatment of PA mice: liver CoA pools and carnitines
# [6] = 24 h urine normalized to body weight
# [7] = 75 ppm chow to day 70, male and female
# [8] = 10 or 30 mg/kg plus 50 mg/kg pantothenate, 3 doses
compound,measurement,setting,value
CC(C)c1ccc(CC(=O)N2CCN(c3ccc(C#N)nn3)CC2)cc1 [PZ-2891],Cmax,"in vivo; iv, 2 mg/kg",2810 ng/mL
same,bioavailability,in vivo; 10 mg/kg,46%
same,AUCinf,[1]; i.v. 2 mg/kg,611.5 ng·h/mL
same,AUClast,[1]; i.v. 2 mg/kg,608.6 ng·h/mL
same,CL,[1]; i.v. 2 mg/kg,54.5 mL/min/kg
same,T1/2,[1]; i.v. 2 mg/kg,18 min
same,Vss,[1]; i.v. 2 mg/kg,0.9 L/kg
same,AUCinf,[1]; p.o. 10 mg/kg,1424.0 ng·h/mL
same,AUClast,[1]; p.o. 10 mg/kg,1397.8 ng·h/mL
same,C0/Cmax (Cmax),[1]; p.o. 10 mg/kg,1886.5 ng/mL
same,Tmax,"[1]; p.o. 10 mg/kg, 30% Captisol, male BALB/c mice, plasma",18 min
O=C(Cc1ccc(C2CC2)c(F)c1)N1CCN(c2ccc(Cl)nn2)CC1 [Compound 1],"Growth rate, lifespan and movement dysfunction",[2],"improvement of growth rate, lifespan, and movement dysfunction"
same,"Weight gain, greater than untreated dKO",[2]; at the time of evaluation,10%
"N#Cc1ccc(N2CCN(C(=O)Cc3ccc(C4CC4)cc3)CC2)nn1 [PZ-3022, 6-(4-(2-(4-cyclopropylphenyl)acetyl)piperazin-1-yl)pyridazine-3-carbonitrile]",Elevation of total cellular CoA,C3A cells,just as effective at raising total CoA levels in cultured cells as PZ-2891
same,Reduction in urinary methylmalonate,[3]; 24 h urine,47%
same,Reduction of urinary malate,[3]; 24 h urine,80%
same,Urine citrate level,[3]; [6],significantly reduced
same,Urine malate level,[3]; [6],significantly reduced
same,Urine methylmalonate level,[3]; [6],significantly reduced
same,Urine α-ketoglutarate level,[3]; [6],significantly reduced
same,Plasma and urine TCA cycle-related metabolite levels,wild-type mice; treated vs untreated wild-type mice,no differences
same,Liver C3-CoA,wild-type mice; wild-type mice on PZ-3022 chow,not altered
same,Liver CoASH,wild-type mice; wild-type mice on PZ-3022 chow,increased as expected
same,Liver acetyl-CoA,wild-type mice; wild-type mice on PZ-3022 chow,increased as expected
same,Plasma and urine amino acids,wild-type mice; wild-type mice on PZ-3022 chow,not changed with the exception of histidine being lower in plasma and higher in urine
same,Liver CoASH,"[4]; 75 ppm PZ-3022 + 1000 ppm pantothenate chow from day 21 to day 70, males and females",restored liver CoASH levels to wild-type
same,Hepatic C3-CoA,[4]; 75 ppm chow to day 70,significant drop
same,Liver C2-CoA,[4]; 75 ppm chow to day 70,restored to wild-type levels
same,Liver C2-carnitine,[4]; 75 ppm chow to day 70,did not exhibit significant increases
same,Liver carnitine,[4]; 75 ppm chow to day 70,did not exhibit significant increases
same,Plasma C3-carnitine,"[4]; 75 ppm chow to day 70, female mice",reduced
same,Liver C3-carnitine,[4]; [7],significantly decreased
same,Plasma C2-carnitine,[4]; [7],significantly increased
same,Plasma carnitine,[4]; [7],increase
same,Plasma C3-carnitine,"[4]; 75 ppm chow to day 70, male mice",the same in the treated and untreated male mice
same,Heart total CoA,[4]; PZ-3022 chow until 70 days of age,increased
same,Reduction in C3-CoA in liver,[4]; PZ-3022 therapy,50%
same,AUC(0-t),"in vivo; iv, 2 mg/kg",2960 ng·h/mL
same,Cmax,"in vivo; iv, 2 mg/kg",3290 ng/mL
same,bioavailability,in vivo; 10 mg/kg,100%
same,AUC(0-t),"in vivo; po, 10 mg/kg",16900 ng·h/mL
same,Elevation of hepatic total CoA,"C57BL/6J mice; 10 mg/kg oral gavage every 24 h for three days, 4 h after last dose",slightly more potent in elevating CoA than PZ-2891
same,Total liver CoA versus dose in chow,"C57BL/6J mice; 7.5, 37.5 and 75 ppm in chow with 1000 ppm pantothenate, 1 week",dose response relationship
same,Plasma and liver PZ-3022 levels versus dose in chow,"C57BL/6J mice; 7.5, 37.5 and 75 ppm in chow, 1 week",dose-dependent increase in drug
same,Hepatic CoA levels at 24 h,C57BL/6J mice; gavage,returned to the pre-dose level
same,Time at which elevation of liver CoA begins after administration,"C57BL/6J mice; gavage, C57BL/6J male mice",2 h
same,Time up to which elevation of liver CoA is maintained,"C57BL/6J mice; gavage, C57BL/6J male mice",up to 8 h
same,Circulating PZ-3022 at 24 h,"C57BL/6J mice; gavage, plasma",not detected
same,Parent drug levels in plasma and liver,"C57BL/6J mice; same oral dosage, 75 ppm chow for 4 weeks",higher levels of circulating (FIG. 16C) and liver (FIG. 16D) PZ-3022 compared to PZ-2891
same,Liver total CoA,"[5]; 10 and 30 mg/kg, 3 doses, fluorescent derivatization","significant, dose-dependent elevation"
same,Liver C2-CoA,[5]; [8],increased
same,Liver C3-CoA,[5]; [8],decreased but was not eliminated
same,Liver CoASH,"[5]; 10 or 30 mg/kg plus 50 mg/kg pantothenate, 3 doses at 24 h, 4 h after last dose",significantly elevated
